Laboratory results published in paper PMC9695041, “The Anti-Breast Cancer Activity of Dihydroartemisinin-5-methylisatin Hybrids Tethered via Different Carbon Spacers” (Molecules, 2022).

What was measured:
[1] = tested on: MCF-7 breast cancer cell line; assay: MTT antiproliferative assay, MCF-7; format: cell-based; details: for IC50: MCF-7, MTT assay
Protocol: (§1) The antiproliferative activity and cytotoxicity of DHA-5-methylisatin hybrids 6a–c and 7a–m against MCF-7, MDA-MB-231, MCF-7/ADR, and MDA-MB-231/ADR (Purchased from Procell) breast cancer cell lines as well as MCF-10A were assessed by 3-(4,5-dimethylthiazol-2-yl)-2,5-diphenyltetrazolium bromide (MTT) assay.
(§2) MCF-7, MDA-MB-231, MCF-7/ADR, and MDA-MB-231/ADR breast cancer cell lines (2 × 10^3) were plated in each well of a 96-well plate and were allowed to adhere and spread for 24 h. The dihydroartemisinin-5-methylisatin hybrids 6a–e and 7a–m were added to a final concentration of 100 µM, and the cells were cultured for 24 h at 37 °C. 3-(4,5-dimethyl-2-thiazolyl)-2,5-diphenyltetrazolium bromide (MTT) solution (10 µL) was added to each well, and the cultures were incubated for an additional 4 h. A further 100 µL of MTT solution was added and incubation continued overnight. The absorbance at 540 nm was determined in each well with a 96-well plate reader. The growth of the treated cells was compared with that of untreated cells.

[2] = tested on: MDA-MB-231 breast cancer cell line; assay: MTT antiproliferative assay, MDA-MB-231; format: cell-based; details: for IC50: MDA-MB-231, MTT assay
Protocol: as §1, §2

[3] = tested on: MCF-7/ADR breast cancer cell line; assay: MTT antiproliferative assay, MCF-7/ADR; format: cell-based; details: MCF-7/ADR (drug-resistant)
Protocol: as §1, §2

[4] = tested on: MDA-MB-231/ADR breast cancer cell line; assay: MTT antiproliferative assay, MDA-MB-231/ADR; format: cell-based; details: MDA-MB-231/ADR (drug-resistant)
Protocol: as §1, §2

[5] = tested on: normal MCF-10A breast cells
Protocol: as §1, §2

[6] = MTT cytotoxicity assay, MCF-10A; details: human, MCF-10A normal breast cells
Protocol: as §1, §2

IC50 [1]	IC50 [2]	IC50 [3]	IC50 [4]	IC50 [5]	IC50 ([1]; Homo sapiens, MCF7)	IC50 ([3]; Homo sapiens, NCI/ADR-RES)	IC50 ([4]; Homo sapiens)	IC50 ([2]; Homo sapiens)	Molecule	SI1: selectivity index IC50(MCF-10A)/IC50(MCF-7) [1]	SI2: selectivity index IC50(MCF-10A)/IC50(MDA-MB-231) [2]	IC50 at 24 h [6]
–	–	–	–	–	59.7 µM	49.9 µM	44.5 µM	42.3 µM	Cc1ccc2c(c1)C(=O)C(=O)N2CCCCOC1O[C@@H]2O[C@@]3(C)CC[C@H]4[C@H](C)CC[C@@H]([C@H]1C)[C@@]24OO3 (stereo partly drawn) [Hybrid 6c, 5-Methyl-1-(4-(((3R,5aS,6R,8aS,9R,12R,12aR)-3,6,9-trimethyldecahydro-12H-3,12-epoxy[1,2]dioxepino[4,3-i]isochromen-10-yl)oxy)butyl)indoline-2,3-dione]	>1.67	>2.36	> 100 µM
–	–	–	–	–	30.3 µM	28.7 µM	36.4 µM	42.6 µM	Cc1ccc2c(c1)C(=NO)C(=O)N2CCCOC1O[C@@H]2O[C@@]3(C)CC[C@H]4[C@H](C)CC[C@@H]([C@H]1C)[C@@]24OO3 (stereo partly drawn) [Hybrid 7b, 3-(Hydroxyimino)-5-methyl-1-(3-(((3R,5aS,6R,8aS,9R,12R,12aR)-3,6,9-trimethyldecahydro-12H-3,12-epoxy[1,2]dioxepino[4,3-i]isochromen-10-yl)oxy)propyl)indolin-2-one]	>3.30	>2.34	> 100 µM
–	–	–	–	–	22.1 µM	23.4 µM	28.5 µM	26.7 µM	Cc1ccc2c(c1)C(=NO)C(=O)N2CCCCOC1O[C@@H]2O[C@@]3(C)CC[C@H]4[C@H](C)CC[C@@H]([C@H]1C)[C@@]24OO3 (stereo partly drawn) [Hybrid 7c, 3-(Hydroxyimino)-5-methyl-1-(4-(((3R,5aS,6R,8aS,9R,12R,12aR)-3,6,9-trimethyldecahydro-12H-3,12-epoxy[1,2]dioxepino[4,3-i]isochromen-10-yl)oxy)butyl)indolin-2-one]	>4.52	>3.83	> 100 µM
–	–	–	–	–	27.2 µM	33.3 µM	21.6 µM	19.7 µM	Cc1ccc2c(c1)C(=NNC(N)=O)C(=O)N2CCOC1O[C@@H]2O[C@@]3(C)CC[C@H]4[C@H](C)CC[C@@H]([C@H]1C)[C@@]24OO3 (stereo partly drawn) [Hybrid 7d, 2-(5-Methyl-2-oxo-1-(2-(((3R,5aS,6R,8aS,9R,12R,12aR)-3,6,9-trimethyldecahydro-12H-3,12-epoxy[1,2]dioxepino[4,3-i]isochromen-10-yl)oxy)ethyl)indolin-3-ylidene)hydrazine-1-carboxamide]	>3.67	>5.07	> 100 µM
–	–	–	–	–	39 µM	42.1 µM	34.5 µM	31.2 µM	Cc1ccc2c(c1)C(=NNC(N)=O)C(=O)N2CCCCOC1O[C@@H]2O[C@@]3(C)CC[C@H]4[C@H](C)CC[C@@H]([C@H]1C)[C@@]24OO3 (stereo partly drawn) [Hybrid 7e, 2-(5-Methyl-2-oxo-1-(4-(((3R,5aS,6R,8aS,9R,12R,12aR)-3,6,9-trimethyldecahydro-12H-3,12-epoxy[1,2]dioxepino[4,3-i]isochromen-10-yl)oxy)butyl)indolin-3-ylidene)hydrazine-1-carboxamide]	>2.56	>3.20	> 100 µM
–	–	–	–	–	46.7 µM	36.4 µM	51.1 µM	48.2 µM	Cc1ccc2c(c1)C(=NNC(N)=S)C(=O)N2CCCOC1O[C@@H]2O[C@@]3(C)CC[C@H]4[C@H](C)CC[C@@H]([C@H]1C)[C@@]24OO3 (stereo partly drawn) [Hybrid 7f, 2-(5-Methyl-2-oxo-1-(3-(((3R,5aS,6R,8aS,9R,12R,12aR)-3,6,9-trimethyldecahydro-12H-3,12-epoxy[1,2]dioxepino[4,3-i]isochromen-10-yl)oxy)propyl)indolin-3-ylidene)hydrazine-1-carbothioamide]	>2.14	>2.07	> 100 µM
–	–	–	–	–	28.9 µM	30.3 µM	40.6 µM	35.1 µM	Cc1ccc2c(c1)C(=NNC(N)=S)C(=O)N2CCCCOC1O[C@@H]2O[C@@]3(C)CC[C@H]4[C@H](C)CC[C@@H]([C@H]1C)[C@@]24OO3 (stereo partly drawn) [Hybrid 7g, 2-(5-Methyl-2-oxo-1-(4-(((3R,5aS,6R,8aS,9R,12R,12aR)-3,6,9-trimethyldecahydro-12H-3,12-epoxy[1,2]dioxepino[4,3-i]isochromen-10-yl)oxy)butyl)indolin-3-ylidene)hydrazine-1-carbothioamide]	>3.46	>2.84	> 100 µM
–	–	–	–	–	69.3 µM	61.8 µM	72.7 µM	70.4 µM	CCON=C1C(=O)N(CCOC2O[C@@H]3O[C@@]4(C)CC[C@H]5[C@H](C)CC[C@@H]([C@H]2C)[C@@]35OO4)c2ccc(C)cc21 (stereo partly drawn) [Hybrid 7i, 3-(Ethoxyimino)-5-methyl-1-(2-(((3R,5aS,6R,8aS,9R,12R,12aR)-3,6,9-trimethyldecahydro-12H-3,12-epoxy[1,2]dioxepino[4,3-i]isochromen-10-yl)oxy)ethyl)indolin-2-one]	>1.44	>1.42	> 100 µM
–	–	–	–	–	> 100 µM	> 100 µM	> 100 µM	> 100 µM	Cc1ccc2c(c1)C(=NOCc1ccccc1)C(=O)N2CCOC1O[C@@H]2O[C@@]3(C)CC[C@H]4[C@H](C)CC[C@@H]([C@H]1C)[C@@]24OO3 (stereo partly drawn) [Hybrid 7k, 3-((Benzyloxy)imino)-5-methyl-1-(2-(((3R,5aS,6R,8aS,9R,12R,12aR)-3,6,9-trimethyldecahydro-12H-3,12-epoxy[1,2]dioxepino[4,3-i]isochromen-10-yl)oxy)ethyl)indolin-2-one]	–	–	> 100 µM
–	–	–	–	–	> 100 µM	> 100 µM	> 100 µM	> 100 µM	Cc1ccc2c(c1)C(=NOCc1ccccc1)C(=O)N2CCCCOC1O[C@@H]2O[C@@]3(C)CC[C@H]4[C@H](C)CC[C@@H]([C@H]1C)[C@@]24OO3 (stereo partly drawn) [Hybrid 7m, 3-((Benzyloxy)imino)-5-methyl-1-(4-(((3R,5aS,6R,8aS,9R,12R,12aR)-3,6,9-trimethyldecahydro-12H-3,12-epoxy[1,2]dioxepino[4,3-i]isochromen-10-yl)oxy)butyl)indolin-2-one]	–	–	> 100 µM

Second part, the molecule before the results:

Molecule	IC50 [1]	IC50 [2]	IC50 [3]	IC50 [4]	IC50 [5]	IC50 ([1]; Homo sapiens, MCF7)	IC50 ([3]; Homo sapiens, NCI/ADR-RES)	IC50 ([4]; Homo sapiens)	IC50 ([2]; Homo sapiens)	SI1: selectivity index IC50(MCF-10A)/IC50(MCF-7) [1]	SI2: selectivity index IC50(MCF-10A)/IC50(MDA-MB-231) [2]	IC50 at 24 h [6]
3-((Benzyloxy)imino)-6-methyl-1-(3-(((3R,5aS,6R,8aS,9R,12R,12aR)-3,6,9-trimethyldecahydro-12H-3,12-epoxy[1,2]dioxepino[4,3-i]isochromen-10-yl)oxy)propyl)indolin-2-one [Hybrid 7l]	> 100 µM	> 100 µM	> 100 µM	> 100 µM	> 100 µM	–	–	–	–	–	–	–
3-(Methoxyimino)-1-(4-(((3R,5aS,6R,8aS,9R,12R,12aR)-3,6,9-trimethyldecahydro-12H-3,12-epoxy[1,2]dioxepino[4,3-i]isochromen-10-yl)oxy)butyl)indolin-2-one [Hybrid 7h]	85.2 µM	73.9 µM	77.5 µM	80.3 µM	> 100 µM	–	–	–	–	–	–	–
COc1cccc2c1C(=O)c1c(O)c3c(c(O)c1C2=O)C[C@@](O)(C(=O)CO)C[C@@H]3O[C@H]1C[C@H](N)[C@H](O)[C@H](C)O1 [ADR, Adriamycin, reference compound]	–	–	–	–	–	18.9 µM	> 100 µM	> 100 µM	–	3.64	14.76	68.8 µM
C[C@@H]1CC[C@H]2[C@@H](C)C(=O)O[C@@H]3O[C@@]4(C)CC[C@@H]1[C@]32OO4 [ART, Artemisinin]	–	–	–	–	–	–	> 100 µM	> 100 µM	–	>1.14	>1.38	> 100 µM
C[C@H]1[C@@H](O)O[C@@H]2O[C@@]3(C)CC[C@H]4[C@H](C)CC[C@@H]1[C@@]24OO3 [DHA, Dihydroartemisinin]	–	–	–	–	–	–	79.1 µM	–	–	>1.36	>1.43	> 100 µM
Cc1ccc2c(c1)C(=O)C(=O)N2CCOC1O[C@@H]2O[C@@]3(C)CC[C@H]4[C@H](C)CC[C@@H]([C@H]1C)[C@@]24OO3 (stereo partly drawn) [Hybrid 6a, 5-Methyl-1-(2-(((3R,5aS,6R,8aS,9R,12R,12aR)-3,6,9-trimethyldecahydro-12H-3,12-epoxy[1,2]dioxepino[4,3-i]isochromen-10-yl)oxy)ethyl)indoline-2,3-dione]	–	–	–	–	–	31.7 µM	25.3 µM	26.9 µM	29.1 µM	>3.15	>3.43	> 100 µM
Cc1ccc2c(c1)C(=O)C(=O)N2CCCOC1O[C@@H]2O[C@@]3(C)CC[C@H]4[C@H](C)CC[C@@H]([C@H]1C)[C@@]24OO3 (stereo partly drawn) [Hybrid 6b, 5-Methyl-1-(3-(((3R,5aS,6R,8aS,9R,12R,12aR)-3,6,9-trimethyldecahydro-12H-3,12-epoxy[1,2]dioxepino[4,3-i]isochromen-10-yl)oxy)propyl)indoline-2,3-dione]	–	–	–	–	–	> 100 µM	87.4 µM	> 100 µM	> 100 µM	–	–	> 100 µM
